{"source": "paper PMC6522510", "about": "(Nature Communications, 2019)", "parameters_in_all_cases": "species or system AML cell lines (8); Primary HTS, single concentration about 10 uM, Cell Titer Glo viability; log10 luminescence, per cent inhibition relative to cycloheximide control", "details_in_all_cases": "72 h, relative to cycloheximide control, log10 luminescence, inhibitor", "key": {"[1]": {"tested_on": "CHRF288-11"}, "[2]": {"tested_on": "CMS"}, "[3]": {"tested_on": "MV4-11"}, "[4]": {"tested_on": "M07e"}, "[5]": {"tested_on": "U937"}, "[6]": {"tested_on": "MOLM-13"}, "[7]": {"tested_on": "ML-2"}, "[8]": {"tested_on": "CMK"}}, "note": "Where a name gives a salt, the structure may show the parent alone. Read-outs that look alike come from different tables or passages of the source."}
{"smiles": "C[C@H](CC[C@@H]1OC1(C)C)[C@H]1CC[C@H]2[C@@H]3CC=C4C[C@@H](O)CC[C@]4(C)[C@H]3CC[C@]12C", "note": "[SJ000561052-1, 24(S),25-EPOXYCHOLESTEROL]", "values": [{"measurement": "CHRF288-11 %inh", "setting": "[1]", "value": 7.379, "unit": "%"}, {"measurement": "CMS %inh", "setting": "[2]", "value": 1.576, "unit": "%"}, {"measurement": "MV4-11 %inh", "setting": "[3]", "value": -1.379, "unit": "%"}, {"measurement": "M07e %inh", "setting": "[4]", "value": 0.1627, "unit": "%"}, {"measurement": "U937 %inh", "setting": "[5]", "value": -2.032, "unit": "%"}, {"measurement": "MOLM-13 %inh", "setting": "[6]", "value": -3.183, "unit": "%"}, {"measurement": "ML-2 %inh", "setting": "[7]", "value": -2.235, "unit": "%"}, {"measurement": "CMK %inh", "setting": "[8]", "value": 11.77, "unit": "%"}]}
{"smiles": "CC(C)=CCC[C@]1(C)[C@@H](CC=C(C)C)C[C@@]2(CC=C(C)C)C(=O)[C@]1(C(=O)C(C)C)C(=O)C(CC=C(C)C)=C2O", "note": "[SJ000561062-1, HYPERFORIN]", "values": [{"measurement": "CHRF288-11 %inh", "setting": "[1]", "value": 6.256, "unit": "%"}, {"measurement": "CMS %inh", "setting": "[2]", "value": -0.1771, "unit": "%"}, {"measurement": "MV4-11 %inh", "setting": "[3]", "value": 2.302, "unit": "%"}, {"measurement": "M07e %inh", "setting": "[4]", "value": 1.526, "unit": "%"}, {"measurement": "U937 %inh", "setting": "[5]", "value": 1.156, "unit": "%"}, {"measurement": "MOLM-13 %inh", "setting": "[6]", "value": 0.05204, "unit": "%"}, {"measurement": "ML-2 %inh", "setting": "[7]", "value": 4.019, "unit": "%"}, {"measurement": "CMK %inh", "setting": "[8]", "value": 3.171, "unit": "%"}]}
{"smiles": "C=CC[C@@H]1[C@H](O)CC[C@@]2(C)[C@H]1CC[C@@H]1[C@@H]2CC[C@]2(C)[C@@H]([C@H](C)CCCC(C)C)CC[C@@H]12", "note": "[SJ000561065-1, LY 295427]", "values": [{"measurement": "CHRF288-11 %inh", "setting": "[1]", "value": -1.753, "unit": "%"}, {"measurement": "CMS %inh", "setting": "[2]", "value": -1.154, "unit": "%"}, {"measurement": "MV4-11 %inh", "setting": "[3]", "value": 0.6492, "unit": "%"}, {"measurement": "M07e %inh", "setting": "[4]", "value": 2.452, "unit": "%"}, {"measurement": "U937 %inh", "setting": "[5]", "value": 1.28, "unit": "%"}, {"measurement": "MOLM-13 %inh", "setting": "[6]", "value": 1.105, "unit": "%"}, {"measurement": "ML-2 %inh", "setting": "[7]", "value": 0.971, "unit": "%"}, {"measurement": "CMK %inh", "setting": "[8]", "value": -3.189, "unit": "%"}]}
{"smiles": "CC(C)=CCC/C(C)=C/CC/C(C)=C/CC/C(C)=C/CO", "note": "[SJ000561066-1, GERANYLGERANIOL]", "values": [{"measurement": "CHRF288-11 %inh", "setting": "[1]", "value": 0.138, "unit": "%"}, {"measurement": "CMS %inh", "setting": "[2]", "value": 3.121, "unit": "%"}, {"measurement": "MV4-11 %inh", "setting": "[3]", "value": 1.567, "unit": "%"}, {"measurement": "M07e %inh", "setting": "[4]", "value": 0.9105, "unit": "%"}, {"measurement": "U937 %inh", "setting": "[5]", "value": 2.958, "unit": "%"}, {"measurement": "MOLM-13 %inh", "setting": "[6]", "value": -0.5636, "unit": "%"}, {"measurement": "ML-2 %inh", "setting": "[7]", "value": 1.709, "unit": "%"}, {"measurement": "CMK %inh", "setting": "[8]", "value": -0.4924, "unit": "%"}]}
{"smiles": "CC1=C(/C=C/C(C)=C/C=C/C(C)=C/C(=O)O)C(C)(C)CCC1O", "note": "(centres unmarked) [SJ000561070-1, 4-HYDROXYRETINOIC ACID]", "values": [{"measurement": "CHRF288-11 %inh", "setting": "[1]", "value": -3.112, "unit": "%"}, {"measurement": "CMS %inh", "setting": "[2]", "value": 38.35, "unit": "%"}, {"measurement": "MV4-11 %inh", "setting": "[3]", "value": 34.76, "unit": "%"}, {"measurement": "M07e %inh", "setting": "[4]", "value": 7.941, "unit": "%"}, {"measurement": "U937 %inh", "setting": "[5]", "value": 18.11, "unit": "%"}, {"measurement": "MOLM-13 %inh", "setting": "[6]", "value": 7.362, "unit": "%"}, {"measurement": "ML-2 %inh", "setting": "[7]", "value": 5.11, "unit": "%"}, {"measurement": "CMK %inh", "setting": "[8]", "value": 1.361, "unit": "%"}]}
{"smiles": "CCC1(CC)C(=O)NC(=O)N(C)C1=O", "note": "[SJ000562691-1, METHARBITAL]", "values": [{"measurement": "CHRF288-11 %inh", "setting": "[1]", "value": 3.211, "unit": "%"}, {"measurement": "CMS %inh", "setting": "[2]", "value": -4.139, "unit": "%"}, {"measurement": "MV4-11 %inh", "setting": "[3]", "value": 0.7749, "unit": "%"}, {"measurement": "M07e %inh", "setting": "[4]", "value": -1.141, "unit": "%"}, {"measurement": "U937 %inh", "setting": "[5]", "value": -1.698, "unit": "%"}, {"measurement": "MOLM-13 %inh", "setting": "[6]", "value": -1.73, "unit": "%"}, {"measurement": "ML-2 %inh", "setting": "[7]", "value": -0.4535, "unit": "%"}, {"measurement": "CMK %inh", "setting": "[8]", "value": -5.926, "unit": "%"}]}
{"smiles": "N=C1NC(=O)N2CC12", "note": "(centres unmarked) [SJ000564440-1, IMEXON]", "values": [{"measurement": "CHRF288-11 %inh", "setting": "[1]", "value": 28.3, "unit": "%"}, {"measurement": "CMS %inh", "setting": "[2]", "value": 13.09, "unit": "%"}, {"measurement": "MV4-11 %inh", "setting": "[3]", "value": 2.121, "unit": "%"}, {"measurement": "M07e %inh", "setting": "[4]", "value": 3.11, "unit": "%"}, {"measurement": "U937 %inh", "setting": "[5]", "value": 11.23, "unit": "%"}, {"measurement": "MOLM-13 %inh", "setting": "[6]", "value": 4.482, "unit": "%"}, {"measurement": "ML-2 %inh", "setting": "[7]", "value": 2.993, "unit": "%"}, {"measurement": "CMK %inh", "setting": "[8]", "value": -0.6297, "unit": "%"}]}
{"smiles": "CC(C)C(=O)OCC(=O)[C@@]12O[C@H](C3CCCCC3)O[C@@H]1C[C@H]1[C@@H]3CCC4=CC(=O)C=C[C@]4(C)[C@H]3[C@@H](O)C[C@@]12C", "note": "[SJ000565158-1, CICLESONIDE]", "values": [{"measurement": "CHRF288-11 %inh", "setting": "[1]; CHRF288-11 %inh, 10 µM", "value": 0.4753, "unit": "%"}, {"measurement": "CMS %inh", "setting": "[2]; CMS %inh, 10 µM", "value": -0.07433, "unit": "%"}, {"measurement": "MV4-11 %inh", "setting": "[3]; MV4-11 %inh, 10 µM", "value": -5.442, "unit": "%"}, {"measurement": "M07e %inh", "setting": "[4]; M07e %inh, 10 µM", "value": -1.566, "unit": "%"}, {"measurement": "U937 %inh", "setting": "[5]; U937 %inh, 10 µM", "value": -2.58, "unit": "%"}, {"measurement": "MOLM-13 %inh", "setting": "[6]; MOLM-13 %inh, 10 µM", "value": 4.252, "unit": "%"}, {"measurement": "ML-2 %inh", "setting": "[7]; ML-2 %inh, 10 µM", "value": -1.054, "unit": "%"}, {"measurement": "CMK %inh", "setting": "[8]; CMK %inh, 10 µM", "value": 2.034, "unit": "%"}]}
{"smiles": "CC(C)C(=O)OCC(=O)[C@@]12O[C@H](C3CCCCC3)O[C@@H]1C[C@H]1[C@@H]3CCC4=CC(=O)C=C[C@]4(C)[C@H]3[C@@H](O)C[C@@]12C", "note": "[SJ000565158-2, CICLESONIDE]", "values": [{"measurement": "CHRF288-11 %inh", "setting": "[1]; CHRF288-11 %inh, 10 µM", "value": 3.888, "unit": "%"}, {"measurement": "CMS %inh", "setting": "[2]; CMS %inh, 10 µM", "value": 2.27, "unit": "%"}, {"measurement": "MV4-11 %inh", "setting": "[3]; MV4-11 %inh, 10 µM", "value": -3.886, "unit": "%"}, {"measurement": "M07e %inh", "setting": "[4]; M07e %inh, 10 µM", "value": 1.744, "unit": "%"}, {"measurement": "U937 %inh", "setting": "[5]; U937 %inh, 10 µM", "value": 6.134, "unit": "%"}, {"measurement": "MOLM-13 %inh", "setting": "[6]; MOLM-13 %inh, 10 µM", "value": -0.3458, "unit": "%"}, {"measurement": "ML-2 %inh", "setting": "[7]; ML-2 %inh, 10 µM", "value": -2.112, "unit": "%"}, {"measurement": "CMK %inh", "setting": "[8]; CMK %inh, 10 µM", "value": 0.8609, "unit": "%"}]}
{"smiles": "CC(C)Nc1cccnc1N1CCN(C(=O)c2cc3cc(NS(C)(=O)=O)ccc3[nH]2)CC1", "note": "[SJ000565159-1, DELAVIRDINE MESYLATE]", "values": [{"measurement": "CHRF288-11 %inh", "setting": "[1]", "value": -4.194, "unit": "%"}, {"measurement": "CMS %inh", "setting": "[2]", "value": -2.71, "unit": "%"}, {"measurement": "MV4-11 %inh", "setting": "[3]", "value": 1.25, "unit": "%"}, {"measurement": "M07e %inh", "setting": "[4]", "value": -1.136, "unit": "%"}, {"measurement": "U937 %inh", "setting": "[5]", "value": 0.4896, "unit": "%"}, {"measurement": "MOLM-13 %inh", "setting": "[6]", "value": 5.504, "unit": "%"}, {"measurement": "ML-2 %inh", "setting": "[7]", "value": -1.959, "unit": "%"}, {"measurement": "CMK %inh", "setting": "[8]", "value": -2.785, "unit": "%"}]}
